IC50 data for 2 compounds are collected here from BindingDB's records for doi:10.1021/cb8001039 (National Cancer Institute-Bethesda, 2008).

What all share (assay): FRET-Based RNase H Assay
What all share (details): pH 8; 20 °C

The target of assay [1] is T1, Gag-Pol polyprotein [613-1167,R896S,E946D,S1117V]/[618-1043,R896S,E946D] (Human immunodeficiency virus 2, UniProt P04584, E946D/R896S/S1117V).
T1 construct: 613-1167; 618-1043
The protocol:
(§1) RNaseH assays were performed using an 18-nucleotide 3-fluorescein-labeled RNA annealed to a complementary 18-nucleotide 5-dabcyl conjugated DNA. The increase in fluorescence as a result of RNase H hydrolysis was monitored with a Spectramax Gemini EM fluorescence spectrometer. Data were analyzed using the instrument manufacturer SoftMax pro software. To determine IC50 values, the slope of the curve representing the time dependent increase in fluorescence was determined at 10 min, when initial rate conditions are met and substrate depletion is not significant. The slope values were plotted against the logarithm of the inhibitor concentrations, and IC50 values were determined using SigmaPlot software.

Assay [2] concerns the target T2, Gag-Pol polyprotein [600-1029,C879S]/[600-1159,C879S] (Human immunodeficiency virus 1, UniProt P03366, C879S).
T2 construct: 600-1029; 600-1159
As for the experimental part:
as §1

A further assay deals with T3, Ribonuclease H1 (Homo sapiens, UniProt O60930).
T3 sequence (O60930 whole entry): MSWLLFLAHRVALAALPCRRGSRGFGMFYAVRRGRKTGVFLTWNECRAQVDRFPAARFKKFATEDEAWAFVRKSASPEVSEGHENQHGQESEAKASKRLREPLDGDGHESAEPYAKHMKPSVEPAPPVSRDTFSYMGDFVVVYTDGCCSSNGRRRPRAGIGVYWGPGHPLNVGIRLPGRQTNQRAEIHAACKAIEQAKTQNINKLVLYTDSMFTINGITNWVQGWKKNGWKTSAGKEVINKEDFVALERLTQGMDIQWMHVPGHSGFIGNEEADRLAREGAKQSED
As for the experimental part:
as §1

The next assay addresses T4, Ribonuclease HI (Escherichia coli (strain K12), UniProt P0A7Y4).
T4 sequence (P0A7Y4 whole entry): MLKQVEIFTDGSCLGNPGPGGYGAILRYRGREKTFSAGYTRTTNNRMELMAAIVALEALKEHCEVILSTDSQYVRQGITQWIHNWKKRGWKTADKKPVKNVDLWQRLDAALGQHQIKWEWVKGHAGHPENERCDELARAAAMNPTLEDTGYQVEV
The protocol: as §1

T1 sequence (P04584 613-1167, looked up, stated change not applied): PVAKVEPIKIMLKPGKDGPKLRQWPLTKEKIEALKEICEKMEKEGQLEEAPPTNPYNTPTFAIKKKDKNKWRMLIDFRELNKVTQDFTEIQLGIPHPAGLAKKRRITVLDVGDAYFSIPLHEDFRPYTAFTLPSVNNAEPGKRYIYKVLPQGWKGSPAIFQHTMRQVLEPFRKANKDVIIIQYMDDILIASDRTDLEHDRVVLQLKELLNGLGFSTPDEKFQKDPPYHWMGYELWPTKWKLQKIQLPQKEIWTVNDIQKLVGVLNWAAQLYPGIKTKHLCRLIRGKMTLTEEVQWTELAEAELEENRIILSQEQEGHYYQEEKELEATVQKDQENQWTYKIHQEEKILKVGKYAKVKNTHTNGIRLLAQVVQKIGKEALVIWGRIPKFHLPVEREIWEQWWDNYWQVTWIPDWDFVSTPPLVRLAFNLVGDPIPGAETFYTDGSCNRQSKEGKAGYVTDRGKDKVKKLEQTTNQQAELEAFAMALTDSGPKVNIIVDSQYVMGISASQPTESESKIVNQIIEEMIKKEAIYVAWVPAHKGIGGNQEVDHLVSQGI
T1 sequence (P04584 618-1043, looked up, stated change not applied): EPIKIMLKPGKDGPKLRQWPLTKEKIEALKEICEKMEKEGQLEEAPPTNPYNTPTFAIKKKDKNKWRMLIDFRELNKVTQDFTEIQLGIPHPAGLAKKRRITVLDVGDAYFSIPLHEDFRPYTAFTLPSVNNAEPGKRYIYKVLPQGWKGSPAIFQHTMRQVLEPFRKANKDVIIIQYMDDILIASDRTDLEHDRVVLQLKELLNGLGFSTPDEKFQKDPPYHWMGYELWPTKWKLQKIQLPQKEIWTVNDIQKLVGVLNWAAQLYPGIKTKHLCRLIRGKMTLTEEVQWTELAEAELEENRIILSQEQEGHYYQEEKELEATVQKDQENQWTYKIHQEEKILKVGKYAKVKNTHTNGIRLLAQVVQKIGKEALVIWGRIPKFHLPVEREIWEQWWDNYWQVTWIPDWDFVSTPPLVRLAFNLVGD

What is called IC50 is the midpoint of a concentration-inhibition curve. A high value points to a need for much substance. For `NC(=O)c1c(N)sc2c1CCCCC2` [SMR000066289], the half-maximal inhibitory concentration (IC50) was determined as 2.5 µM in assay [1], 2 µM in assay [2], 10.6 µM against Ribonuclease H1 and 100 µM against Ribonuclease HI.
On the same counts, the results for `Cc1sc(NC(=O)c2ccco2)c(C(N)=O)c1C` [vinylogous urea, NSC727448] are 5 µM, 3.2 µM, 29 µM and 73 µM.
